Experimental data from paper PMC11754443, “Synthesis, H2S releasing properties, antiviral and antioxidant activities and acute cardiac effects of nucleoside 5′-dithioacetates” (Scientific Reports, 2025).
Where “and” joins values, the source holds several entries; their conditions need not be identical. Equal values may be shown once. Read-outs that look alike come from different tables or passages of the source.

Tests used:
[1] = system: anaesthetized Sprague-Dawley rats; assay: Cardiac effects by ECG and echocardiography in anaesthetized rats; format: in vivo, rat; conditions: for Ejection Fraction / Heart rate / PR interval / QT interval / Stroke Volume: anaesthetized SD rats, 30 s after administration, mean ± SD
Description: The animals received humane care, and all experimental procedures were carried out in accordance with the “Principles of Laboratory Animal Care” by EU Directive 2010/63/EU. All experimental protocols were approved by the local Ethics Committee of University of Debrecen (25/2023/DEMÁB). Animal experiments are reported in compliance with the ARRIVE guidelines. Anesthesia was carried out using ketamine/xylazine mixture (100/10 mg/kg, i.m.). The chest was shaved and the animal was placed onto a heated pad (VisualSonics SR200, VisualSonics, Amsterdam, The Netherlands). The lateral tail vein was cannulated using a heparinized 26G i.v. cannula (BD Neoflon, BD Medical, NJ, USA). B-mode and M-mode echocardiography was carried out before and 30 s after the intravenous administration of the compounds. A high-resolution ultrasound machine (Vevo 3100 Imaging Station, VisualSonics, Amsterdam, The Netherlands) equipped with a […] transducer (MX201) was used for assessing cardiac parameters. Traces were obtained from the parasternal long axis view (PLAX). A B-mode video and an M-mode trace was recorded, and the following parameters were then offline analysed: left ventricle (LV) end-systolic and end-diastolic volume (LVESV, LVEDV, respectively) fractional shortening (FS) and ejection fraction (EF) and stroke volume (SV).
A 3-channel ECG was continuously recorded during the experiments (Vevo monitor ECG, VisualSonics, Amsterdam, The Netherlands). On the recorded ECG data, RR, PR and QT intervals, and heart rate (HR) were determined before and 30 s after the administration of the drugs, and 6 consecutive cardiac cycles were averaged for each parameter.
Statistical analyses for the in vivo studies were carried out using the GraphPad Prism 9.0 software (GraphPad Software, San Diego, CA, USA). Data distribution was assessed by the Shapiro-Wilk normality test, and paired t-test were used to determine the differences between the baseline (drug free) and endpoint (treated) parameters in each group. A multiple comparison was also carried out between the treatment groups by using one-way ANOVA with Tukey multiple comparison test. Data was shown as mean ± SD, and differences with p < 0.05 were considered significant.

[2] = DPPH radical scavenging assay; conditions: for DPPH inhibition ratio (IR) after 30-min incubation / DPPH inhibition ratio (IR) immediately: 0.5 mM
Description: DPPH is a stable free radical with a deep violet color that changes to yellow when neutralized by an electron or hydrogen radical, indicating the antioxidant activity of the sample being tested. The DPPH radical scavenging abilities were investigated following the method outlined by Shimamura et al., with minor adjustments. In this study, a cardiovascular tissue homogenate was used to induce H2S release from the dithioacetate derivatives 22 and 24, as well as GYY4137. A mixed solution of 1.2 mL of methanol and 800 µL of 0.1 M Tris-HCl buffer (pH 7.4) served as the blank. 1 mL DPPH solution was added to a mixture of methanol and 0.1 M Tris-HCl buffer (200:800 µL). After mixing, the absorbance was recorded at 517 nm on a UV-1600 PC VWR spectrophotometer (VWR, China). To avoid any potential interference from the heart extract in the assay, we measured the absorbance after adding different volumes of the extract into the mixture. These measurements were taken both immediately and after 30 min of incubation.
The DPPH antioxidant assay was performed according to the following procedures. 1 mL of DPPH solution was added to a mixture of 200 µL of the methanolic sample solution and 800 µL of 0.1 M Tris-HCl buffer (pH = 7.4). For the groups containing the extract, the extract was introduced into a mixture of the sample solution in PBS buffer, 0.1 M Tris-HCl buffer, and DPPH (200:800:1000 µL). Considering that GYY4137 produces H2S upon hydrolysis, it was introduced last following the addition of the extract into a solution of PBS buffer, 0.1 M Tris-HCl buffer, and DPPH maintained at the same ratio. The same protocol was employed for NaHS without the addition of the extract. After mixing, the absorbance was promptly recorded, after which the solutions were incubated in the dark at room temperature for 30 min before the absorbance was measured again. The test samples were prepared and assayed at varying concentrations using a 2-fold serial dilution method, starting from a concentration of 2 mM. Each investigation was performed in triplicate, and the antioxidant activity was based on the absorbance recorded at 517 nm. Ascorbic acid (AA), GYY4137, and NaHS served as positive controls, while the unmodified nucleosides were used as reference compounds.
The inhibition ratio (IR) was calculated as follows: [drawing 1] where Ac is the absorbance when methanol is added instead of the sample and As is the absorbance when the testing sample solution is added.
The antioxidant capacity was expressed as the concentration needed to achieve a 50% inhibition of the free radical (IC50). The IC50 values were calculated by plotting the percent of inhibition as a function of sample concentration.

[3] = ABTS radical cation decolorization assay; conditions: 0.1 mM, compared with parent dithioacetates 22 and 24
Description: The ABTS decolorization assay was carried out as described by Szoke et al.[54] Briefly, the method is based on the scavenging of (2,2′-azinobis-(3-ethylbenzothiazoline-6-sulfonic acid) ABTS^•+ radical cation. The decolorization caused by the compound is compared to the decolorization induced by Trolox (6-hydroxy-2,5,7,8-tetramethylchroman-2-carboxylic acid), and expressed as Trolox equivalent antioxidant capacity (TEAC) value. TEAC values were expressed as Trolox equivalents calculated from (Ai − Af)antioxidant/(Ai − Af) Trolox at 0.1 mM concentrations. Briefly, a total of 10 µL sample, 20 µL of Myoglobin Working Solution, and 150 µL of ABTS Substrate Working Solution were mixed and incubated for 5 min at room temperature. At the end of incubation […] of Stop Solution was added and endpoint absorbance at 405 nm was read. All experiments were performed in triplicates and repeated three times.

Calu-3 cells = assay: Cytotoxicity in Calu-3 cells (CellTiter-Glo); format: cell-based, human; conditions: Calu-3 cells, no virus, two days incubation; read-out: CC50 ± SE, cytotoxicity in Calu-3 cells
Description: Cytotoxicity was evaluated by incubating the same two-fold serial dilutions of each compound with Calu-3 cells as above in the absence of the virus. Following two days incubation at 37 °C in 5% CO2, the cell viability was determined as above. The compound concentrations resulting in 50% reduction of cell viability (CC50) were calculated from plots of percentage of luminescence versus log10 drug concentration as above. Remdesivir was used as control in both assays.

[4] = system: SARS-CoV-2 (strain hCoV-19/Czech Republic/NRL_6632_2/2020); assay: Anti-SARS-CoV-2 cytopathic-effect-based assay in Calu-3 cells (CellTiter-Glo); format: cell-based; conditions: compound added 2 h after infection, MOI 0.3, read after two days, read-out: EC50 ± SE, anti-SARS-CoV-2 activity
SARS-CoV-2 = format: cell-based; conditions: medium of Calu-3 cells infected 2 days at the highest compound concentration, plaque assay in Vero E6 cells
[5] = H2S release detected with amperometric H2S-specific sensor in DMEM; conditions: DMEM with 10% FBS, 0.28-0.32 mM compound
Description: The H2S-donating ability of compound 22, 24, 27, 29 and 30 (0.5 mg dissolved in 0.1 mL of DMSO) was detected in Dulbecco’s modified Eagle’s medium (DMEM) (4.9 mL) supplemented with 10% fetal bovine serum and 1% penicillin-streptomycin. The final concentrations were 0.31 mM for compound 22, 0.29 mM for compound 24, 0.28 mM for compound 27, 0.32 mM for compound 29 and 0.32 mM for compound 30, respectively. The released H2S was detected by an amperometric, H2S specific sensor (ISO-H2S-100, World Precision Instruments, Saratosa, FL, USA) connected to a WPI TBR 1025 One-Channel Free Radical Analyzer. The sensor was set to 10 nA range and poise voltage to + 150 mV. Before the measurements the sensor was polarized in phosphate buffered saline (PBS) for 12 h[19]. The H2S-release of NaHS was detected in distilled water (0.1 mg in 5 mL of H2O; 0.36 mM) and the H2S-release of GYY4137 was measured in DMEM (0.5 mg of GYY4137 in 5 mL of medium; 0.27 mM).

[6] = anaesthetized rats, 2 mg/kg i.v.
[7] = after 30 min incubation, without extract, read-out: DPPH IC50 30 min
[8] = measured immediately, without extract, read-out: DPPH IC50 immediately
[9] = after 30 min incubation, with 20 µL homogenized rat heart extract, read-out: DPPH IC50 30 min, + extract (20 µL)
[10] = measured immediately, with 20 µL homogenized rat heart extract, read-out: DPPH IC50 immediately, + extract (20 µL)

Molecule	IC50 [2, 7] [mM]	IC50 [2, 8] [mM]	CC50 (Calu-3 cells) [mM]	EC50 [4] [mM]	SARS-CoV-2 titer reduction (SARS-CoV-2) [log10 PFU/mL]	persistence of measurable H2S release [5]	time at which H2S gas release reached the maximum level [5] [min]	also measured
Nc1ncnc2c1ncn2[C@@H]1O[C@H](CO)[C@@H](O)[C@H]1O [Adenosine, reference compound]	–	–	–	–	–	–	–	Ejection Fraction ([1]; 2 mg/kg i.v.): 71.25±2.958%; Heart rate ([1]; 2 mg/kg i.v.): 67.38±16.46 bpm; PR interval ([1]; 2 mg/kg i.v.): 59.50 ± 10.63 ms; QT interval ([1]; 2 mg/kg i.v.): 195.0 ± 31.69 ms; Stroke Volume ([1]; 2 mg/kg i.v.): 396.8 ± 130.4 µL; time within which negative chronotropic effect dissipated [1, 6]: approximately 60 s; heart block (in words) ([1]; rat, in vivo, iv, 2 mg/kg): induced heart block
O=C1O[C@H]([C@@H](O)CO)C(O)=C1O [Ascorbic acid (AA), Ascorbic acid, reference compound]	0.06	0.06	–	–	–	–	–	DPPH inhibition ratio (IR) after 30-min incubation ([2]; after 30 min incubation): 97.13%; DPPH inhibition ratio (IR) immediately ([2]; immediately): 97.25%
O=c1ccn([C@@H]2O[C@H](CS)[C@@H](O)[C@H]2O)c(=O)[nH]1 [Compound 32, 5′-Thiouridine]	0.57	0.71	–	–	–	–	–	ABTS antioxidant activity (Trolox equivalents), in words [3]: higher antioxidant activity than the parent dithioacetate derivatives; DPPH inhibition ratio after 30 min incubation ([2]; 2 mM, after 30 min incubation): 90%; DPPH inhibition ratio immediately ([2]; 2 mM, immediately): 70–80%; DPPH activity lower than that of ascorbic acid ([2]; from IC50 values, relative to ascorbic acid): 10 times
C1COCCN1.COc1ccc(P(=S)(S)N2CCOCC2)cc1 (stereo not drawn) [GYY4137, reference compound]	–	–	–	–	–	–	–	DPPH inhibition ratio (IR) after 30-min incubation ([2]; after 30 min incubation): 10.63%; DPPH inhibition ratio (IR) immediately ([2]; immediately): 5.95%
[Na+].[SH-] [NaHS, sodium hydrosulfide, reference compound]	–	–	–	–	–	–	–	DPPH inhibition ratio (IR) after 30-min incubation ([2]; after 30 min incubation): 90% and 90.03%; DPPH inhibition ratio (IR) immediately ([2]; immediately): 56.14%
O=c1ccn([C@@H]2O[C@H](CO)[C@@H](O)[C@H]2O)c(=O)[nH]1 [Uridine, reference compound]	> 100	> 100	–	–	–	–	–	–
S-(Adenosine-5′-yl)-dithioacetic acid [Compound 24]	2.58	3.54	~1	0.173 ± 0.024	0	remained at a measurable level even after two hours	10 to 20	Ejection Fraction ([1]; 2 mg/kg i.v.): 80.70±5.230%; Heart rate ([1]; 2 mg/kg i.v.): 120.5±29.19 bpm; PR interval ([1]; 2 mg/kg i.v.): 47.00 ± 3.742 ms; QT interval ([1]; 2 mg/kg i.v.): 172.3 ± 46.85 ms; Stroke Volume ([1]; 2 mg/kg i.v.): 416.5 ± 93.56 µL; duration of negative chronotropic action compared with adenosine [1, 6]: their duration of action was longer; heart block (in words) [1, 6]: None of the new compounds (22, 24, and 34) induced complete heart block or pauses; IC50 [2, 9]: 1.62 mM; IC50 [2, 10]: 2.66 mM
S-(Cytidine-5′-yl)-dithioacetic acid [Compound 29]	–	–	> 1	> 1	0.13	remained at a measurable level even after two hours	10 to 20	–
S-(Guanosine-5′-yl)-dithioacetic acid [Compound 27]	–	–	> 1	0.158 ± 0.034	0.38	remained at a measurable level even after two hours	10 to 20	–
S-(Thymidine-5′-yl)-dithioacetic acid [Compound 30]	–	–	0.764 ± 0.082	0.621 ± 0.181	0.01	remained at a measurable level even after two hours	10 to 20	–
S-(Uridine-5′-yl)-dithioacetic acid [Compound 22]	3.63	5.56	> 1	> 1	0.02	remained at a measurable level even after two hours	10 to 20	Ejection Fraction ([1]; 2 mg/kg i.v.): 68.70±4.226%; Heart rate ([1]; 2 mg/kg i.v.): 172.3±19.45 bpm; PR interval ([1]; 2 mg/kg i.v.): 51.2 ± 7.530 ms; QT interval ([1]; 2 mg/kg i.v.): 122.2 ± 10.73 ms; Stroke Volume ([1]; 2 mg/kg i.v.): 344.6 ± 81.32 µL; heart block (in words) [1, 6]: None of the new compounds (22, 24, and 34) induced complete heart block or pauses; IC50 [2, 9]: 1.57 mM; IC50 [2, 10]: 3.52 mM
